For 16 molecules, IC50 results are on record in patent US9732103B2 (priority 2014, dated 2017).

A value given as a limit tells only on which side of the number the result lay.

Chain of Human factor D (P00746 26-253 limits assumed): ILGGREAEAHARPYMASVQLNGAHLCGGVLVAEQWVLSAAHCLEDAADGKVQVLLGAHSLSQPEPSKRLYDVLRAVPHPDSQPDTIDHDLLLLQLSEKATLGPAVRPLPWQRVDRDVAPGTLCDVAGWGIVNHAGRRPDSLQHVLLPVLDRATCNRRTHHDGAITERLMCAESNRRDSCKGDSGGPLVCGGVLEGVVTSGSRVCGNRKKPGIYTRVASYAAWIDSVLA

One experiment has as its target Human factor D (Homo sapiens (Human), UniProt P00746). It is filed as biochemical.
Details: not given
In turn, `CC(=O)c1cn(CC(=O)Oc2ccc3c(c2)c(C(C)=O)cn3CC(=O)N2C[C@H](F)C[C@H]2C(=O)NCc2cccc(Cl)c2F)c2ccc(O)cc12` [Compound 1, 3-acetyl-1-(2-((2S,4R)-2-(3-chloro-2-fluorobcnzylcarbamoyl)-4-fluoropyrrolidin-1-yl)-2-oxoethyl)-1H-indol-5-yl 2-(3-acctyl-5-hydroxy-1H-indol-1-yl)acctate] had an IC50 below 1000 nM.
On to `CC(=O)c1cn(CC(=O)N2C[C@H](F)C[C@H]2C(=O)NCc2cccc(Cl)c2F)c2ccc(OC(=O)NCc3cscn3)cc12` [Compound 2, 3-acctyl-1-(2-((2S,4R)-2-(3-chloro-2-fluorobenzylcarbamoyl)-4-fluoropyrrolidin-1-yl)-2-oxoethyl)-1H-indol-5-yl thiazol-4-ylmethylcarbamate], for which the IC50 was below 1000 nM.
Take `CC(=O)c1cn(CC(=O)N2C[C@H](F)C[C@H]2C(=O)NCc2cccc(Cl)c2F)c2cc(OC(=O)NCc3cscn3)ccc12` [Compound 3, 3-acctyl-1-(2-((2S,4R)-2-(3-chloro-2-fluorobenzylcarbamoyl)-4-fluoropyrrolidin-1-yl)-2-oxoethyl)-1H-indol-6-yl thiazol-4-ylmethylcarbamate]: the IC50 is below 1000 nM.
On the same count and under the same terms, the result for `CC(=O)c1cn(CC(=O)N2C[C@H](F)C[C@H]2C(=O)NCc2cccc(Cl)c2F)c2cc(OC(=O)NCc3nn[nH]n3)ccc12` [Compound 4, 3-acetyl-1-(2-((2S,4R)-2-(3-chloro-2-fluorobenzylcarbamoyl)-4-fluoropyrrolidin-1-yl)-2-oxoethyl)-1H-indol-6-yl (2H-tetrazol-5-yl)methylcarbamate] reads below 1000 nM.
The same measure, in the same setting: the result for `CC(=O)c1cn(CC(=O)N2C[C@H](F)C[C@H]2C(=O)NCc2cccc(Cl)c2F)c2cc(OC(=O)NCCc3nn[nH]n3)ccc12` [Compound 5, 3-acctyl-1-(2-((2S,4R)-2-(3-chloro-2-fluorobenzylcarbamoyl)-4-fluoropyrrolidin-1-yl)-2-oxoethyl)-1H-indol-6-yl 2-(2H-tetrazol-5-yl)ethylcarbamate] reads below 1000 nM; that for `CC(=O)c1cn(CC(=O)N2C[C@H](F)C[C@H]2C(=O)NCc2cccc(Cl)c2F)c2cc(OC(=O)NCCP(=O)(O)O)ccc12` [Compound 6, 2-((3-acctyl-1-(2-((2S,4R)-2-(3-chloro-2-fluorobenzylcarbamoyl)-4-fluoropyrrolidin-1-yl)-2-oxoethyl)-1H-indol-6-yloxy)carbonylamino) ethylphosphonic acid], below 1000 nM; that for `CC(=O)c1cn(CC(=O)N2C[C@H](F)C[C@H]2C(=O)NCc2cccc(Cl)c2F)c2cc(OC(=O)NCc3ccc(B(O)O)cc3)ccc12` [Compound 7, 4-(((3-acetyl-1-(2-((2S,4R)-2-(3-chloro-2-fluorobenzylcarbamoyl)-4-fluoropyrrolidin-1-yl)-2-oxoethyl)-1H-indol-6-yloxy)carbonylamino)methyl)phenylboronic acid], below 1000 nM.
Still for that read-out and setting: the result for `CC(=O)c1cn(CC(=O)N2C[C@H](F)C[C@H]2C(=O)NCc2cccc(Cl)c2F)c2ccc(OC(=O)NC3CC3)cc12` [Compound 8, 3-acetyl-1-(2-((2S,4R)-2-(3-chloro-2-fluorobenzylcarbamoyl)-4-fluoropyrrolidin-1-yl)-2-oxoethyl)-1H-indol-5-yl cyclopropylcarbamate] reads below 1000 nM; that for `CC(=O)c1cn(CC(=O)N2C[C@H](F)C[C@H]2C(=O)NCc2cccc(Cl)c2F)c2ccc(OC(=O)NCc3cocn3)cc12` [Compound 9, 3-acctyl-1-(2-((2S,4R)-2-(3-chloro-2-fluorobenzylcarbamoyl)-4-fluoropyrrolidin-1-yl)-2-oxoethyl)-1H-indol-5-yl oxazol-4-ylmethylcarbamate], below 1000 nM; that for `CC(=O)c1cn(CC(=O)N2C[C@H](F)C[C@H]2C(=O)NCc2cccc(Cl)c2F)c2ccc(OC(=O)NCc3nnn[nH]3)cc12` [Compound 10, 3-acetyl-1-(2-((2S,4R)-2-(3-chloro-2-fluorobenzylcarbamoyl)-4-fluoropyrrolidin-1-yl)-2-oxoethyl)-1H-indol-5-yl (1H-tetrazol-5-yl)methylcarbamate], below 1000 nM.
`CC(=O)c1cn(CC(=O)N2C[C@H](F)C[C@H]2C(=O)NCc2cccc(Cl)c2F)c2cc(C(=O)C[S+](C)[O-])ccc12` (stereo partly drawn) [Compound 11, (2S,4R)-1-(2-(3-acetyl-6-(2-(methylsulfinyl)acetyl)-1H-indol-1-yl)acetyl)-N-(3-chloro-2-fluorobenzyl)-4-fluoropyrrolidine-2-carboxamide] yielded an IC50 below 1000 nM.
Still for that read-out and setting: the value for `CC(=O)c1cn(CC(=O)N2C[C@H](F)C[C@H]2C(=O)NCc2cccc(Cl)c2F)c2ccc(OC(=O)N3CCOCC3)cc12` [Compound 12, 3-acetyl-1-(2-((2S,4R)-2-(3-chloro-2-fluorobenzylcarbamoyl)-4-fluoropyrrolidin-1-yl)-2-oxoethyl)-1H-indol-5-yl morpholine-4-carboxylate] was below 1000 nM; that for `CC(=O)c1cn(CC(=O)N2C[C@H](F)C[C@H]2C(=O)NCc2cccc(Cl)c2F)c2ccc(OC(=O)NCc3ncccn3)cc12` [Compound 13, 3-acctyl-1-(2-((2S,4R)-2-(3-chloro-2-fluorobenzylcarbamoyl)-4-fluoropyrrolidin-1-yl)-2-oxoethyl)-1H-indol-5-yl pyrimidin-2-ylmethylcarbamate] was below 1000 nM; that for `CC(=O)c1cn(CC(=O)N2C[C@H](F)C[C@H]2C(=O)NCc2cccc(Cl)c2F)c2ccc(OC(=O)NCCc3nn[nH]n3)cc12` [Compound 14, 3-acctyl-1-(2-((2S,4R)-2-(3-chloro-2-fluorobenzylcarbamoyl)-4-fluoropyrrolidin-1-yl)-2-oxoethyl)-1H-indol-5-yl 2-(2H-tetrazol-5-yl)ethylcarbamate] was below 1000 nM.
Still for that read-out and setting: the result for `CC(=O)c1cn(CC(=O)N2C[C@H](F)C[C@H]2C(=O)NCc2cccc(Cl)c2F)c2ccc(OC(=O)NCCc3c[nH]cn3)cc12` [Compound 15, 3-acctyl-1-(2-((2S,4R)-2-(3-chloro-2-fluorobenzylcarbamoyl)-4-fluoropyrrolidin-1-yl)-2-oxoethyl)-1H-indol-5-yl 2-(1H-imidazol-4-yl)ethylcarbamate] reads below 1000 nM.

The experiment is the same for the next values; noted with them: factor D 80 nM, substrate Z-L-Lys-SBzl 100 μM, DTNB, pH 7.5.
Molecule `CC(=O)c1cn(CC(=O)N2C[C@H](F)C[C@H]2C(=O)NCc2cccc(Cl)c2F)c2ccc(OC(=O)N3CCNCC3)cc12` [Compound 16, 3-acetyl-1-(2-((2S,4R)-2-(3-chloro-2-fluorobenzylcarbamoyl)-4-fluoropyrrolidin-1-yl)-2-oxoethyl)-1H-indol-5-yl piperazine-1-carboxylate] came in with an IC50 below 1000 nM.

The IC50 is the point on the concentration scale where inhibition reaches its midpoint. Low readings indicate inhibition by little substance, high ones a need for much substance.
